Reference: publication PMC5903241 (British Journal of Clinical Pharmacology, 2018)
Several values for one entry are separate records, joined by “and”; a condition that tells them apart may be missing. Equal entries are not always repeated. Where two headings read alike, the source gives them in different places.

What was measured:
[1] = assay type: in vivo, healthy subjects; conditions: for Tmax / AUC / Cmax: human, plasma, oral; for AUC: AUCtau, steady state; for AUC / Cmax: mean (SD); for Cmax: Cmax,ss; for Estimated geometric mean ratio of AUCtau / Estimated geometric mean ratio of Cmax,ss: sacubitril/valsartan + furosemide vs sacubitril/valsartan alone
Safety assessments = assay type: in vivo, healthy subjects; conditions: for Pulse rate / Supine diastolic blood pressure / Supine systolic blood pressure: mean ± SD; for eGFR: mean ± standard deviation, baseline 107.8 ± 10.9
[2] = assay type: in vivo, healthy subjects; conditions: mean (SD)
[3] = furosemide 40 mg alone, geometric least squares mean
[4] = 200 mg, sacubitril/valsartan 200 mg twice daily alone
[5] = sacubitril/valsartan 200 mg twice daily + furosemide 40 mg single dose
[6] = urine, 4 to 8 h after furosemide

| Compound | Tmax ([1]; 200 mg) | AUC [1, 4] | Cmax [1, 4] | AUC [1, 5] | Cmax [1, 5] | Estimated geometric mean ratio of AUCtau [1] | Estimated geometric mean ratio of Cmax,ss [1] | Pulse rate (Safety assessments) | Supine diastolic blood pressure (Safety assessments) | Supine systolic blood pressure (Safety assessments) | eGFR (Safety assessments) | further results |
| --- | --- | --- | --- | --- | --- | --- | --- | --- | --- | --- | --- | --- |
| CCCCC(=O)N(Cc1ccc(-c2ccccc2-c2nnn[nH]2)cc1)[C@H](C(=O)O)C(C)C [Valsartan, valsartan] | 1.75 h | 18900 ng·h/mL | 3860 ng/mL | 21000 ng·h/mL | 4250 ng/mL | 1.16 | 1.16 |  |  |  |  | coefficient of variation of pharmacokinetic parameters ([1]; valsartan pharmacokinetic parameters): 35.8%; increase of AUCtau when coadministered with furosemide ([1]; vs sacubitril/valsartan alone): 16%; increase of Cmax,ss when coadministered with furosemide ([1]; vs sacubitril/valsartan alone): 16% |
| sacubitril/valsartan |  |  |  |  |  |  |  | 71.6 ± 9.9 bpm | 67.5 ± 7.9 mmHg | 111.1 ± 10.7 mmHg | 107.7 ± 12.5 ml min^–1 1.73 m^–2 | subjects reporting AEs diarrhoea, headache and presyncope (each) (Safety assessments; each reported by one subject of 28, sacubitril/valsartan alone): 3.6% |
| NS(=O)(=O)c1cc(C(=O)O)c(NCc2ccco2)cc1Cl [Furosemide, furosemide] |  |  |  |  |  |  |  | 71.0 ± 9.7 bpm | 71.6 ± 6.1 mmHg | 115.5 ± 12.2 mmHg | 103.1 ± 12.5 ml min^–1 1.73 m^–2 | Urine volume, Volume0–4 ([2]; 0 to 4 h after furosemide): 1640.00 (413.49) ml; Urine volume, Volume0–24 ([2]; 0 to 24 h after furosemide): 3816.07 (533.04) ml; Urine volume, Volume4–8 ([2]; 4 to 8 h after furosemide): 585.36 (204.30) ml; Potassium Ae0–4 ([2]; urine, 0 to 4 h after furosemide): 22.87 (5.60) mmol; Sodium Ae0–4 ([2]; urine, 0 to 4 h after furosemide, listed as Furosemide alone): 128.87 mmol and 128.87 (42.36) mmol; Potassium Ae0–24 ([2]; urine, 0 to 24 h after furosemide): 60.35 (8.08) mmol; Sodium Ae0–24 ([2]; urine, 0 to 24 h after furosemide, listed as Furosemide alone): 198.68 mmol and 198.68 (34.95) mmol; Potassium Ae4–8 [2, 6]: 10.04 (3.74) mmol; Sodium Ae4–8 [2, 6]: 21.57 (12.89) mmol; subjects reporting AE back pain (Safety assessments; one subject of 28): 3.6%; subjects reporting AEs (Safety assessments; when treated with furosemide, 28 subjects): Two subjects reported AEs; Ae0–4, amount excreted in urine ([3]; 0 to 4 h): 8.03 mg; Ae0–24, amount excreted in urine ([3]; 0 to 24 h): 12.54 mg |

Continued, in another order:

| Tmax ([1]; 200 mg) | AUC [1, 4] | Cmax [1, 4] | AUC [1, 5] | Cmax [1, 5] | Estimated geometric mean ratio of AUCtau [1] | Estimated geometric mean ratio of Cmax,ss [1] | Compound | Pulse rate (Safety assessments) | Supine diastolic blood pressure (Safety assessments) | Supine systolic blood pressure (Safety assessments) | eGFR (Safety assessments) | further results |
| --- | --- | --- | --- | --- | --- | --- | --- | --- | --- | --- | --- | --- |
| 2 h | 79600 ng·h/mL | 11800 ng/mL | 86100 ng·h/mL | 12700 ng/mL | 1.08 | 1.08 | C[C@H](C[C@@H](Cc1ccc(-c2ccccc2)cc1)NC(=O)CCC(=O)O)C(=O)O [Sacubitrilat, sacubitrilat] |  |  |  |  |  |
| 0.52 h | 2330 ng·h/mL | 1740 ng/mL | 2330 ng·h/mL | 1810 ng/mL | 1.01 | 1.04 | CCOC(=O)[C@H](C)C[C@@H](Cc1ccc(-c2ccccc2)cc1)NC(=O)CCC(=O)O [Sacubitril, sacubitril] |  |  |  |  |  |
